From patent publication US20100074932A1, “ANTIMICROBIAL COMPOSITIONS CONTAINING GALLIUM” (priority 2006, published 2010)

How the values were obtained:
[1] = on exposure of the coating to body fluid, based on relative solubilities in water
Description: The differences in the solubility of the different salts in the composition will result in different and prolonged rates of release of the oligodynamic gallium in the coating composition when a device coated with the composition is exposed to body fluid. The amount of water in the final coating solution is about 30% of the total solvent weight.

[2] = system: Escherichia coli 6418; test: Biofilm formation on catheter after two hours pre-attachment of bacteria, plate counting; assay type: cell-based; details: 0.2 mM gallium nitrate, 48 hours, compared to positive control with no gallium, FIG. 4
[3] = system: Escherichia coli 6418; test: Microbial colonization of hydrogel coated latex foley catheter surface, plate counting; assay type: cell-based; details: 0.2 mM gallium nitrate, 48 hours, compared to positive control with no gallium, FIG. 3
Experimental: After 48 hours, catheter pieces were removed, microorganisms were recovered from the catheter surface and enumerated by plate counting methods.

Compound	order of release from the coating composition [1]	biofilm formation [2]	microbial colonization of the catheter surface [3]
CC(=O)[O-].CC(=O)[O-].CC(=O)[O-].[Ga+3] [gallium acetate]	Then		
O=[N+]([O-])[O-].O=[N+]([O-])[O-].O=[N+]([O-])[O-].[Ga+3] [gallium nitrate]		reduced biofilm formation	reduced microbial colonization
[I][Ga]([I])[I] [gallium iodide]	lastly		
